Reference: ChEMBL document CHEMBL1126751, “Studies on quinazolines. 5. 2,3-dihydroimidazo[1,2-c]quinazoline derivatives: a novel class of potent and selective alpha 1-adrenoceptor antagonists and antihypertensive agents” (J Med Chem, 1993)
Activity calls are given as the source filed them. No cut-off for these calls is given here.

Key:
[1] = biological target: T1, Adrenergic receptor alpha-1 (Rattus norvegicus, UniProt P15823+P23944+P43140); assay: Binding affinity against alpha-1 adrenergic receptor by measuring displacement of [3H]prazosin from rat brain cortex membranes (in vitro).; assay type: cell membranes, Membrane
T1 sequence (P15823 whole entry): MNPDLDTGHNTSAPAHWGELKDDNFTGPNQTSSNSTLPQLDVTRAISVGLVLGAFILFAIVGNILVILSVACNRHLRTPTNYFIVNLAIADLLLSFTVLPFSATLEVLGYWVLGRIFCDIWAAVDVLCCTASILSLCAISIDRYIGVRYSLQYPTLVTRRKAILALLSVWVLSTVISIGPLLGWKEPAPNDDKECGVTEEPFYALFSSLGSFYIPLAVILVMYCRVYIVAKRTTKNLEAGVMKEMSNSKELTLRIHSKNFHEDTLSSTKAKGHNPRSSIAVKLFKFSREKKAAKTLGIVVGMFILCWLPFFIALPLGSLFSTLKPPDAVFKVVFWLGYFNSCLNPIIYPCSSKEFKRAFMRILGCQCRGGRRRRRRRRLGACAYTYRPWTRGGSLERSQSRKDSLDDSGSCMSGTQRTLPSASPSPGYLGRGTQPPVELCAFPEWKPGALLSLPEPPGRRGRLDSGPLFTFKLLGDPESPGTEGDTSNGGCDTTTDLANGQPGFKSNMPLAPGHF
T1 sequence (P23944 whole entry): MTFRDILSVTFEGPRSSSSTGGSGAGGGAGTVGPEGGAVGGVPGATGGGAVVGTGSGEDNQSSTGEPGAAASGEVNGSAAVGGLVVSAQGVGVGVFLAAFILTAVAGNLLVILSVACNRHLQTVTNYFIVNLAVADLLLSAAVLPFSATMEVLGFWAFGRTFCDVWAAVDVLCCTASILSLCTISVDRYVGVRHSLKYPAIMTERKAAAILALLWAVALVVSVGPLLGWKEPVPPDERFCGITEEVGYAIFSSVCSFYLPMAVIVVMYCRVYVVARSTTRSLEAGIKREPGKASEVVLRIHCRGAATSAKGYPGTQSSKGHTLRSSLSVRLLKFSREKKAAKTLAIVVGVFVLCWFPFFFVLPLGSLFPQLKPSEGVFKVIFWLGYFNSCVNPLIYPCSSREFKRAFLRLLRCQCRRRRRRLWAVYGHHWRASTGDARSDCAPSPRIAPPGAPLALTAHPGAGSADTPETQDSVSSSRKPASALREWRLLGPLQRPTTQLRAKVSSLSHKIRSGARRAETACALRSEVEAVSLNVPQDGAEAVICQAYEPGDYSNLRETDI
T1 sequence (P43140 whole entry): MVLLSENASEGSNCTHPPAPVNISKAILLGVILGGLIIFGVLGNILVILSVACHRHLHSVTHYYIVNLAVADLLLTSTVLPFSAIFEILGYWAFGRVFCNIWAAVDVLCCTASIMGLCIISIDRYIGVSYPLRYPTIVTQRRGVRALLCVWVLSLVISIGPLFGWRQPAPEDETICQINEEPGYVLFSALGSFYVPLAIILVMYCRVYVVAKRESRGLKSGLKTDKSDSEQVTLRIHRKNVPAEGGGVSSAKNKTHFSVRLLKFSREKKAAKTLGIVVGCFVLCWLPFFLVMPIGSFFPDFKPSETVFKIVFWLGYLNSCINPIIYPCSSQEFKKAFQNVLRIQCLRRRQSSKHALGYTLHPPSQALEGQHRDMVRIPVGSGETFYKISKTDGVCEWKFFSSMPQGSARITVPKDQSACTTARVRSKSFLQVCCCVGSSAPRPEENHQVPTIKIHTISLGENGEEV

Rattus norvegicus [2] = assay: Blood pressure lowering activity in spontaneously hypertensive rats (SHR) after 6 hours of administration (iv) of dose of 4.0 mg/kg; Did not last more than 1/2 hr […]; assay type: functional, organism-based; set-up: dose 4 mg/kg
Rattus norvegicus [3] = assay: Blood pressure lowering activity in spontaneously hypertensive rats (SHR) after 1 hour of administration (iv) of dose of 4.0 mg/kg; Did not last more than 1/2 hr […]; assay type: functional, organism-based; set-up: dose 4 mg/kg
[4] = biological target: T2, Adrenergic receptor alpha-2 (Rattus norvegicus, UniProt P22086+P19328+P22909); assay: Binding affinity against alpha-2 adrenergic receptor by measuring displacement of [3H]clonidine from rat brain cortex membranes (in vitro).; assay type: cell membranes, Membrane
T2 sequence (P22086 whole entry): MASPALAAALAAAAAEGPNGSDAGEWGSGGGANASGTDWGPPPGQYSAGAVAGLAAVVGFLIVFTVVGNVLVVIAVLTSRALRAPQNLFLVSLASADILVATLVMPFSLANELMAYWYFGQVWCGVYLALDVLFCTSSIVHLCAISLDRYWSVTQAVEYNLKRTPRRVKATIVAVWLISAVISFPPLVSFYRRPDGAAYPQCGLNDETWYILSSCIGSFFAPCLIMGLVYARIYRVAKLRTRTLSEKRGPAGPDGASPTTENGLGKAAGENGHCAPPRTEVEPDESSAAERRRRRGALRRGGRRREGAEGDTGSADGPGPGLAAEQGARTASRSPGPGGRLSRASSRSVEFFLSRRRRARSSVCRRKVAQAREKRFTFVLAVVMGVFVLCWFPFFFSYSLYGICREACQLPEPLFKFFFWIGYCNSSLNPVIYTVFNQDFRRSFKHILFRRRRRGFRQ
T2 sequence (P19328 whole entry): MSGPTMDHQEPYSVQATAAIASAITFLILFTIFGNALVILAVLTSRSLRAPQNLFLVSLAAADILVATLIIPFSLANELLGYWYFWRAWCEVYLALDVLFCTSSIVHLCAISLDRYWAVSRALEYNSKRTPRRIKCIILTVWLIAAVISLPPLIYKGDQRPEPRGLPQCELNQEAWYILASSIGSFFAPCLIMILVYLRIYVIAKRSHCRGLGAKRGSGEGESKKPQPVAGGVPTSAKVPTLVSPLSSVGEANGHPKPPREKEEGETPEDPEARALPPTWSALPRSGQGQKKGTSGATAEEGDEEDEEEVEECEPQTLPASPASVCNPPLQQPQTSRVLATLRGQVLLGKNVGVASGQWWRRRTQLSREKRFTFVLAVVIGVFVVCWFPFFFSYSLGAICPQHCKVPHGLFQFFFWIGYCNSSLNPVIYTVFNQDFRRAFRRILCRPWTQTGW
T2 sequence (P22909 whole entry): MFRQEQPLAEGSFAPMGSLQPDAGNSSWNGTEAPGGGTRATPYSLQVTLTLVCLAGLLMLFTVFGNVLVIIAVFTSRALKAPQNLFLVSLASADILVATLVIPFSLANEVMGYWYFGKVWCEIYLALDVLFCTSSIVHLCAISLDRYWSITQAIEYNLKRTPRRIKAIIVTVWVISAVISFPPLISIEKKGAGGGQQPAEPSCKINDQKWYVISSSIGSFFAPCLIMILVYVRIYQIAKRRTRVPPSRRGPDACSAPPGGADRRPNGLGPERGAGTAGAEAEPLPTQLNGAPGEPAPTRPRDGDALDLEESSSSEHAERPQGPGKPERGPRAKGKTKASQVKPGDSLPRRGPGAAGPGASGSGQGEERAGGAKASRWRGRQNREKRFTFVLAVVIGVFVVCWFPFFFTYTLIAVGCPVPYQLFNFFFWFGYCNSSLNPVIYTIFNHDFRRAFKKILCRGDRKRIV

Rattus norvegicus [5] = assay: Blood pressure lowering activity in spontaneously hypertensive rats (SHR) after 6 hours of administration (iv) of dose of 0.5 mg/kg; Did not last more than 1/2 hr […]; assay type: functional, organism-based; set-up: dose 0.5 mg/kg
Rattus norvegicus [6] = assay: Blood pressure lowering activity in spontaneously hypertensive rats (SHR) after 1 hour of administration (iv) of dose of 0.5 mg/kg […]; assay type: functional
Rattus norvegicus [7] = assay: Blood pressure lowering activity in spontaneously hypertensive rats (SHR) after 6 hours of administration (iv) of dose of 1.0 mg/kg; Did not last more than 1/2 hr […]; assay type: functional, organism-based; set-up: dose 1 mg/kg
Rattus norvegicus [8] = assay: Blood pressure lowering activity in spontaneously hypertensive rats (SHR) after 1 hour of administration (iv) of dose of 1.0 mg/kg; Did not last more than 1/2 hr […]; assay type: functional, organism-based; set-up: dose 1 mg/kg
Rattus norvegicus [9] = assay: Blood pressure lowering activity in spontaneously hypertensive rats (SHR) after 1 hour of administration (iv) of dose of 4.0 mg/kg […]; assay type: functional
Rattus norvegicus [10] = assay: Blood pressure lowering activity in spontaneously hypertensive rats (SHR) after 6 hours of administration (iv) of dose of 0.5 mg/kg […]; assay type: functional
Rattus norvegicus [11] = assay: Blood pressure lowering activity in spontaneously hypertensive rats (SHR) after 6 hours of administration (iv) of dose of 4.0 mg/kg […]; assay type: functional

Row | Structure (SMILES) | Ki [1] [nM] | MBP (Rattus norvegicus [2]) | MBP (Rattus norvegicus [3]) | Ki [4] [nM] | other results
1 | O=C1Nc2ccccc2C2=NC(CNC3CCN(Cc4ccccc4)CC3)CN12 (configuration not stated) | 586 | inactive | inactive |  | 
2 | O=C1Nc2ccccc2C2=NC(CN3CCC4(CCCCC4)CC3)CN12 (configuration not stated) | 251.2 | inactive | inactive |  | 
3 | COC1=Nc2ccccc2C2=NCC(CN3CCN(c4ccccc4Cl)CC3)N12 (configuration not stated) | 0.11 |  |  | 116 | MBP (Rattus norvegicus [5]): inactive; MBP (Rattus norvegicus [6]): -28.3 mmHg
4 | COc1cccc(N2CCN(CC3CN=C4c5ccccc5N=C(SC)N43)CC2)c1 (configuration not stated) | 48.8 |  |  | 8356 | MBP (Rattus norvegicus [7]): inactive; MBP (Rattus norvegicus [8]): inactive
5 | O=C1Nc2ccccc2C2=NC(CN3CCC(Cc4ccccc4)CC3)CN12 (configuration not stated) | 35.8 | inactive |  | 5011 | MBP (Rattus norvegicus [9]): -30.6 mmHg
6 | COC1=Nc2ccccc2C2=NCC(CN3CCN(c4ccccc4)CC3)N12 (configuration not stated) | 1.35 |  |  | 952 | MBP (Rattus norvegicus [7]): inactive; MBP (Rattus norvegicus [8]): inactive
7 | O=C1Nc2ccccc2C2=NCC(CN3CCN(c4ccccc4Cl)CC3)N12 (configuration not stated) | 0.58 |  |  | 387 | MBP (Rattus norvegicus [10]): -15 mmHg; MBP (Rattus norvegicus [6]): -14.6 mmHg
8 | O=C1Nc2ccccc2C2=NC(CN3CCN(c4ccc(F)cc4)CC3)CN12 (configuration not stated) | 14.4 |  | inactive | 391 | 
9 | COc1ccc(N2CCN(CC3CN=C4c5ccccc5NC(=O)N43)CC2)cc1 (configuration not stated) | > 50 | inactive | inactive |  | 
10 | COC1=Nc2ccccc2C2=NCC(CN3CCN(c4ccccc4OC)CC3)N12 (configuration not stated) | 0.07 |  |  | 472 | MBP (Rattus norvegicus [5]): inactive; MBP (Rattus norvegicus [6]): -17.2 mmHg
11 | COc1cc2c(cc1OC)C1=NC(CN3CCN(c4ccccc4)CC3)CN1C(=O)N2 (configuration not stated) | 30 |  |  | 1694 | MBP (Rattus norvegicus [11]): -12.6 mmHg; MBP (Rattus norvegicus [9]): -38.2 mmHg
12 | O=C1Nc2ccccc2C2=NCC(CN3CCN(c4ccccc4)CC3)N12 (configuration not stated) | 1.7 |  |  | 962 | 
13 | CSC1=Nc2ccccc2C2=NCC(CN3CCN(c4ccccc4)CC3)N12 (configuration not stated) | > 10 |  |  |  | MBP (Rattus norvegicus [7]): inactive; MBP (Rattus norvegicus [8]): inactive
14 | CN1C(=O)N2CC(CN3CCN(c4ccccc4Cl)CC3)N=C2c2ccccc21 (configuration not stated) | 0.68 |  |  | 473 | MBP (Rattus norvegicus [10]): -22.5 mmHg; MBP (Rattus norvegicus [6]): -27.5 mmHg
15 | O=C1Nc2ccccc2C2=NC(CN3CCN(c4ccccn4)CC3)CN12 (configuration not stated) | 95.9 | inactive | inactive |  | 
16 | COc1cccc(N2CCN(CC3CN=C4c5ccccc5N(C)C(=O)N43)CC2)c1 (configuration not stated) | 19.4 | inactive | inactive |  | 
17 | SC1=Nc2ccccc2C2=NC(CN3CCN(c4ccccc4)CC3)CN12 (configuration not stated) | 158 |  |  |  | MBP (Rattus norvegicus [11]): -22.5 mmHg; MBP (Rattus norvegicus [9]): -33.9 mmHg
18 | CSC1=Nc2ccccc2C2=NCC(CN3CCN(c4ccccc4Cl)CC3)N12 (configuration not stated) | 0.34 |  |  | 223 | MBP (Rattus norvegicus [7]): inactive; MBP (Rattus norvegicus [8]): inactive
19 | COC1=Nc2ccccc2C2=NCC(CN3CCN(c4cccc(OC)c4)CC3)N12 (configuration not stated) | > 100 | inactive | inactive |  | 
20 | COc1ccc(N2CCN(CC3CN=C4c5ccccc5N=C(SC)N43)CC2)cc1 (configuration not stated) | > 100 |  |  |  | MBP (Rattus norvegicus [7]): inactive; MBP (Rattus norvegicus [8]): inactive
21 | COc1cccc(N2CCN(CC3CN4C(=O)Nc5ccccc5C4=N3)CC2)c1 (configuration not stated) |  |  |  |  | MBP (Rattus norvegicus [11]): -8.5 mmHg; MBP (Rattus norvegicus [9]): -20.3 mmHg
22 | COc1ccccc1N1CCN(CC2CN=C3c4ccccc4N(C)C(=O)N32)CC1 (configuration not stated) | 0.36 |  |  | 1419 | MBP (Rattus norvegicus [10]): -28.3 mmHg; MBP (Rattus norvegicus [6]): -32.5 mmHg
23 | O=C(c1ccc(F)cc1)C1CCN(CC2CN3C(=O)Nc4ccccc4C3=N2)CC1 (configuration not stated) |  |  |  |  | MBP (Rattus norvegicus [11]): -13.8 mmHg; MBP (Rattus norvegicus [9]): -30 mmHg
24 | COc1ccccc1N1CCN(CC2CN3C(=O)N(C)c4ccccc4C3=N2)CC1 (configuration not stated) | 0.37 |  |  | 1740 | MBP (Rattus norvegicus [10]): -28.4 mmHg; MBP (Rattus norvegicus [6]): -38.4 mmHg
25 | COC1=Nc2ccccc2C2=NCC(CN3CCN(c4ccc(OC)cc4)CC3)N12 (configuration not stated) | > 100 | inactive | inactive |  | 
26 | COc1cccc(N2CCN(CC3CN=C4c5ccccc5NC(=O)N43)CC2)c1 (configuration not stated) | 5.76 | inactive | inactive | 302 | 
